In the supplement of paper PMC10307832:

Tests used:
Assay in all cases: relative viability (nuclei count vs DMSO), 5 days (fraction); higher = more cells survive
BX 795 = compound: O=C(NCCCNc1nc(Nc2cccc(NC(=O)N3CCCC3)c2)ncc1I)c1cccs1 [BX 795]
Summary of the method: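 Lung cancer cell lines received five library-drug doses (not always all listed) spaced by √10, pinned on vehicle-anchored 1536-well plates after an overnight stay at 37 °C. Five days later, with no medium change, nuclei were Hoechst-stained, imaged at 4× and counted with MetaXpress. Viability is treated-well nuclei relative to vehicle-well nuclei, as a median across plates. Passing plates had control CV below 25% and at least one doubling.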

BX 795 + Alpelisib = compound: O=C(NCCCNc1nc(Nc2cccc(NC(=O)N3CCCC3)c2)ncc1I)c1cccs1 [BX 795] + Cc1nc(NC(=O)N2CCC[C@H]2C(N)=O)sc1-c1ccnc(C(C)(C)C(F)(F)F)c1 [Alpelisib] (partner 2 µM)
Summary of the method: (§1)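 Relative viability equals treated-well nuclei counts divided by vehicle-well nuclei counts. Counts came from 4× images of lung cancer cell lines grown in 1536-well plates for 5 days after pin-tool dosing on the day after seeding. Dosing used one drug alone or a fixed anchor-drug dose plus five library-drug doses (not always all listed) in √10 steps, and values are medians of duplicate plates.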

BX 795 + Pictilisib = compound: O=C(NCCCNc1nc(Nc2cccc(NC(=O)N3CCCC3)c2)ncc1I)c1cccs1 [BX 795] + CS(=O)(=O)N1CCN(Cc2cc3nc(-c4cccc5[nH]ncc45)nc(N4CCOCC4)c3s2)CC1 [Pictilisib] (partner 1 µM)
Summary of the method: as §1

BX 795 + Lapatinib = compound: O=C(NCCCNc1nc(Nc2cccc(NC(=O)N3CCCC3)c2)ncc1I)c1cccs1 [BX 795] + CS(=O)(=O)CCNCc1ccc(-c2ccc3ncnc(Nc4ccc(OCc5cccc(F)c5)c(Cl)c4)c3c2)o1 [Lapatinib] (partner 2 µM)
Summary of the method: as §1

BX 795 + Bortezomib = compound: O=C(NCCCNc1nc(Nc2cccc(NC(=O)N3CCCC3)c2)ncc1I)c1cccs1 [BX 795] + CC(C)C[C@H](NC(=O)[C@H](Cc1ccccc1)NC(=O)c1cnccn1)B(O)O [Bortezomib] (partner 0.002 µM)
Summary of the method: as §1

BX 795 + Navitoclax = compound: O=C(NCCCNc1nc(Nc2cccc(NC(=O)N3CCCC3)c2)ncc1I)c1cccs1 [BX 795] + CC1(C)CCC(c2ccc(Cl)cc2)=C(CN2CCN(c3ccc(C(=O)NS(=O)(=O)c4ccc(N[C@H](CCN5CCOCC5)CSc5ccccc5)c(S(=O)(=O)C(F)(F)F)c4)cc3)CC2)C1 [Navitoclax] (partner 0.5 µM)
Summary of the method: as §1

BX 795 + AZD7762 = compound: O=C(NCCCNc1nc(Nc2cccc(NC(=O)N3CCCC3)c2)ncc1I)c1cccs1 [BX 795] + NC(=O)Nc1cc(-c2cccc(F)c2)sc1C(=O)N[C@H]1CCCNC1 [AZD7762] (partner 0.2 µM)
Summary of the method: as §1

BX 795 + Linsitinib = compound: O=C(NCCCNc1nc(Nc2cccc(NC(=O)N3CCCC3)c2)ncc1I)c1cccs1 [BX 795] + C[C@]1(O)C[C@@H](c2nc(-c3ccc4ccc(-c5ccccc5)nc4c3)c3c(N)nccn32)C1 [Linsitinib] (partner 1 µM)
Summary of the method: as §1

BX 795 + Crizotinib = compound: O=C(NCCCNc1nc(Nc2cccc(NC(=O)N3CCCC3)c2)ncc1I)c1cccs1 [BX 795] + C[C@@H](Oc1cc(-c2cnn(C3CCNCC3)c2)cnc1N)c1c(Cl)ccc(F)c1Cl [Crizotinib] (partner 1 µM)
Summary of the method: as §1

BX 795 + Foretinib = compound: O=C(NCCCNc1nc(Nc2cccc(NC(=O)N3CCCC3)c2)ncc1I)c1cccs1 [BX 795] + COc1cc2c(Oc3ccc(NC(=O)C4(C(=O)Nc5ccc(F)cc5)CC4)cc3F)ccnc2cc1OCCCN1CCOCC1 [Foretinib] (partner 0.25 µM)
Summary of the method: as §1

BX 795 + Olaparib = compound: O=C(NCCCNc1nc(Nc2cccc(NC(=O)N3CCCC3)c2)ncc1I)c1cccs1 [BX 795] + O=C(c1cc(Cc2n[nH]c(=O)c3ccccc23)ccc1F)N1CCN(C(=O)C2CC2)CC1 [Olaparib] (partner 8 µM)
Summary of the method: as §1

Cell Line NCI-H1703 has a relative viability (BX 795; 0.04 µM) of 0.469, a relative viability (BX 795; 0.1265 µM) of 0.806 and a relative viability (BX 795; 0.4 µM) of 0.236. It also gave a relative viability (BX 795; 1.265 µM) of 0.298, a relative viability (BX 795 + Alpelisib; first compound 0.04 µM) of 0.211 and a relative viability (BX 795 + Alpelisib; first compound 0.1265 µM) of 0.286. It also gave a relative viability (BX 795 + Alpelisib; first compound 0.4 µM) of 0.194, a relative viability (BX 795 + Alpelisib; first compound 1.265 µM) of 0.204 and a relative viability (BX 795 + Pictilisib; first compound 0.1265 µM) of 0.201. For the same cell line, the relative viability (BX 795 + Pictilisib; first compound 0.4 µM) was 0.222, the relative viability (BX 795 + Pictilisib; first compound 1.265 µM) was 0.185 and the relative viability (BX 795 + Lapatinib; first compound 0.04 µM) was 0.729. It also gave a relative viability (BX 795 + Lapatinib; first compound 0.1265 µM) of 1.11, a relative viability (BX 795 + Lapatinib; first compound 0.4 µM) of 0.284 and a relative viability (BX 795 + Lapatinib; first compound 1.265 µM) of 0.243. The relative viability (BX 795 + Bortezomib; first compound 0.04 µM) was 0.272, the relative viability (BX 795 + Bortezomib; first compound 0.1265 µM) was 0.223 and the relative viability (BX 795 + Bortezomib; first compound 0.4 µM) was 0.167. The relative viability (BX 795 + Bortezomib; first compound 1.265 µM) was 0.159, the relative viability (BX 795 + Navitoclax; first compound 0.04 µM) was 0.8 and the relative viability (BX 795 + Navitoclax; first compound 0.1265 µM) was 1. It also gave a relative viability (BX 795 + Navitoclax; first compound 0.4 µM) of 0.22, a relative viability (BX 795 + Navitoclax; first compound 1.265 µM) of 0.289 and a relative viability (BX 795 + AZD7762; first compound 0.04 µM) of 0.138. It also gave a relative viability (BX 795 + AZD7762; first compound 0.1265 µM) of 0.115, a relative viability (BX 795 + AZD7762; first compound 0.4 µM) of 0.148 and a relative viability (BX 795 + AZD7762; first compound 1.265 µM) of 0.156. It also gave a relative viability (BX 795 + Linsitinib; first compound 0.1265 µM) of 0.622, a relative viability (BX 795 + Linsitinib; first compound 0.4 µM) of 0.185 and a relative viability (BX 795 + Linsitinib; first compound 1.265 µM) of 0.224. The relative viability (BX 795 + Crizotinib; first compound 0.04 µM) was 0.317, the relative viability (BX 795 + Crizotinib; first compound 0.1265 µM) was 0.453 and the relative viability (BX 795 + Crizotinib; first compound 0.4 µM) was 0.148. The relative viability (BX 795 + Crizotinib; first compound 1.265 µM) was 0.179, the relative viability (BX 795 + Foretinib; first compound 0.1265 µM) was 0.296 and the relative viability (BX 795 + Foretinib; first compound 0.4 µM) was 0.274. It also gave a relative viability (BX 795 + Foretinib; first compound 1.265 µM) of 0.27, a relative viability (BX 795 + Olaparib; first compound 0.1265 µM) of 0.283 and a relative viability (BX 795 + Olaparib; first compound 0.4 µM) of 0.229. For the same cell line, the relative viability (BX 795 + Olaparib; first compound 1.265 µM) was 0.152.
